Measured values reported in patent US7595401B2, “Therapeutic compounds and their use in cancer” (Myriad Pharmaceuticals, Inc., priority 2006, dated 2009).

test system: purified human Hsp90; experiment: Binding Assay: fluorescence polarization with BODIPY-labeled geldanamycin; settings: 5 μM compound, BODIPY-GM 10 nM, Hsp90 30 nM
Method in brief: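 Compounds in 2% DMSO final compete with 10 nM BODIPY-GM for 30 nM purified human Hsp90, incubated overnight at room temperature in pH 7.3 HEPES buffer containing Na2MoO4 and DTT. Polarization (mP, ex/em 485/530) normalized to DMSO gives percent inhibition; autofluorescence-confounded data excluded.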

Row | % Inhibition at 5 μM Compound Concentration [%] | SMILES
1 | 54 | CCOc1cc(CCn2c(Sc3cc4c(cc3Br)OCO4)nc3c(N)ncnc32)ccc1OC [Example 117, 8-(6-Bromo-benzo[1,3]dioxol-5-ylsulfanyl)-9-[2-(3-ethoxy-4-methoxy-phenyl)-ethyl]-9H-purin-6-ylamine]
2 | 15 | COc1ccc(OC)c(Sc2nc3c(N)ncnc3n2CC(c2ccc(Cl)cc2)C(C)C)c1 (centres unmarked) [Example 119, 9-[2-(4-Chloro-phenyl)-3-methyl-butyl]-8-(2,5-dimethoxy-phenylsulfanyl)-9H-purine-6-ylamine]
3 | 0 | COc1ccc(OC)c(Sc2nc3c(N)ncn(CCc4c(F)cccc4Cl)c-3n2)c1 [Example 123, 3-[2-(2-chloro-6-fluoro-phenyl)-ethyl]-8-(2,5-dimethoxy-phenylsulfanyl)-3H-purine-6-ylamine]
4 | 12 | Cc1ccc(C)c(CCn2cnc(N)c3nc(Sc4cc5c(cc4Br)OCO5)nc2-3)c1 [Example 125, 8-(6-bromo-benzo[1,3]dioxol-5-ylsulfanyl)-3-[2-(2,5-dimethyl-phenyl)-ethyl]-3H-purin-6-ylamine]
5 | 0 | COc1ccc(OC)c(Sc2nc3c(N)ncn(CCc4cc(C)cc(C)c4)c-3n2)c1 [Example 133, 8-(2,5-dimethoxy-phenylsulfanyl)-3-[2-(3,5-dimethyl-phenyl)-ethyl]-3H-purine-6-ylamine]
6 | 0 | COc1ccc(OC)c(Sc2nc3c(N)ncn(CCc4cccc(I)c4)c-3n2)c1 [Example 138, 8-(2,5-dimethoxy-phenylsulfanyl)-3-[2-(3-iodo-phenyl)-ethyl]-3H-purin-6-ylamine]
7 | 0 | COc1ccc(OC)c(Sc2nc3c(N)ncn(CCc4cc(F)cc(F)c4)c-3n2)c1 [Example 144, 3-[2-(3,5-difluoro-phenyl)-ethyl]-8-(2,5-dimethoxy-phenylsulfanyl)-3H-purin-6-ylamine]

Second part, the molecule before the results:

Row | SMILES | % Inhibition at 5 μM Compound Concentration [%]
8 | Nc1ncn(CCc2cccc(F)c2)c2nc(Sc3cc4c(cc3Br)OCO4)nc1-2 [Example 110, 8-(6-bromo-benzo[1,3]dioxol-5-ylsulfanyl)-3-[2-(3-fluoro-phenyl)-ethyl]-3H-purin-6-ylamine] | 16
9 | CCOc1cc(CCn2cnc(N)c3nc(Sc4cc(OC)ccc4OC)nc2-3)ccc1OC [Example 112, 8-(2,5-dimethoxy-phenylsulfanyl)-3-[2-(3-ethoxy-4-methoxy-phenyl)-ethyl]-3H-purin-6-ylamine] | 0
10 | COc1ccc(OC)c(Sc2nc3c(N)ncn(CC(c4ccccc4)C(C)C)c-3n2)c1 (centres unmarked) [Example 114, 8-(2,5-dimethoxy-phenylsulfanyl)-3-(3-methyl-2-phenyl-butyl)-3H-purin-6-ylamine] | 14
11 | COc1ccc(OC)c(Sc2nc3c(N)ncn(CCc4cc(C)ccc4C)c-3n2)c1 [Example 116, 8-(2,5-dimethoxy-phenylsulfanyl)-3-[2-(2,5-dimethyl-phenyl)-ethyl]-3H-purin-6-ylamine] | 0
12 | CCOc1cc(CCn2cnc(N)c3nc(Sc4cc5c(cc4Br)OCO5)nc2-3)ccc1OC [Example 118, 8-(6-bromo-benzo[1,3]dioxol-5-ylsulfanyl)-3-[2-(3-ethoxy-4-methoxy-phenyl)-ethyl]-3H-purin-6-ylamine] | 0
13 | COc1ccc(OC)c(Sc2nc3c(N)ncn(CC(c4ccc(Cl)cc4)C(C)C)c-3n2)c1 (centres unmarked) [Example 120, 3-[2-(4-chloro-phenyl)-3-methyl-butyl]-8-(2,5-dimethoxy-phenylsulfanyl)-3H-purine-6-ylamine] | 0
14 | COc1ccc(OC)c(Sc2nc3c(N)ncnc3n2CCc2ccc(F)cc2F)c1 [Example 121, 9-[2-(2,4-Difluoro-phenyl)-ethyl]-8-(2,5-dimethoxy-phenylsulfanyl)-9H-purine-6-ylamine] | 54
15 | CC(C)C(Cn1cnc(N)c2nc(Sc3cc4c(cc3Br)OCO4)nc1-2)c1ccccc1 (centres unmarked) [Example 127, 8-(6-bromo-benzo[1,3]dioxol-5-ylsulfanyl)-3-(3-methyl-2-phenyl-butyl)-3H-purin-6-ylamine] | 51
16 | Nc1ncn(CCc2c(Cl)cccc2Cl)c2nc(Sc3cc4c(cc3Br)OCO4)nc1-2 [Example 129, 8-(6-bromo-benzo[1,3]dioxol-5-ylsulfanyl)-3-[2-(2,6-dichloro-phenyl)-ethyl]-3H-purin-6-ylamine] | 54
17 | Nc1ncn(CCc2c(F)cccc2Cl)c2nc(Sc3cc4c(cc3Br)OCO4)nc1-2 [Example 131, 8-(6-bromo-benzo[1,3]dioxol-5-ylsulfanyl)-3-[2-(2-chloro-6-fluoro-phenyl)-ethyl]-3H-purin-6-ylamine] | 18
18 | COc1ccc(OC)c(Sc2nc3c(N)ncnc3n2CCc2cc(C)cc(C)c2)c1 [Example 132, 8-(2,5-Dimethoxy-phenylsulfanyl)-9-[2-(3,5-dimethyl-phenyl)-ethyl]-9H-purine-6-ylamine] | 54
19 | COc1ccc(OC)c(Sc2nc3c(N)ncn(CCc4ccccn4)c-3n2)c1 [Example 136, 8-(2,5-Dimethoxy-phenylsulfanyl)-3-(2-pyridin-2-yl-ethyl)-3H-purin-6-ylamine] | 16
20 | COc1ccc(OC)c(Sc2nc3c(N)ncn(CCc4ccc(F)cc4Cl)c-3n2)c1 [Example 140, 3-[2-(2-chloro-4-fluoro-phenyl)-ethyl]-8-(2,5-dimethoxy-phenylsulfanyl)-3H-purin-6-ylamine] | 0
21 | COc1ccc(OC)c(Sc2nc3c(N)ncn(CCc4ccccc4Br)c-3n2)c1 [Example 142, 3-[2-(2-bromo-phenyl)-ethyl]-8-(2,5-dimethoxy-phenylsulfanyl)-3H-purin-6-ylamine] | 0

same assay, conditions: BODIPY-GM 10 nM, Hsp90 30 nM

Row | IC50 [nM] | SMILES
22 | 300 | CCOc1cc(CCn2c(Sc3cc4c(cc3Br)OCO4)nc3c(N)ncnc32)ccc1OC [Example 117, 8-(6-Bromo-benzo[1,3]dioxol-5-ylsulfanyl)-9-[2-(3-ethoxy-4-methoxy-phenyl)-ethyl]-9H-purin-6-ylamine]
23 | 85 | COc1ccc(OC)c(Sc2nc3c(N)ncnc3n2CCc2c(F)cccc2Cl)c1 [Example 122, 9-[2-(2-chloro-6-fluoro-phenyl)-ethyl]-8-(2,5-dimethoxy-phenylsulfanyl)-9H-purine-6-ylamine]
24 | > 3000 | COc1ccc(OC)c(Sc2nc3c(N)ncnc3n2CCc2ccncc2)c1 [Example 134, 8-(2,5-Dimethoxy-phenylsulfanyl)-9-(2-pyridin-4-yl-ethyl)-9H-purin-6-ylamine]
25 | 1300 | COc1ccc(OC)c(Sc2nc3c(N)ncnc3n2CCc2ccccn2)c1 [Example 135, 8-(2,5-Dimethoxy-phenylsulfanyl)-9-(2-pyridin-2-yl-ethyl)-9H-purin-6-ylamine]
26 | 210 | COc1ccc(OC)c(Sc2nc3c(N)ncnc3n2CCc2cccc(I)c2)c1 [Example 137, 8-(2,5-Dimethoxy-phenylsulfanyl)-9-[2-(3-iodo-phenyl)-ethyl]-9H-purin-6-ylamine]
27 | 90 | COc1ccc(OC)c(Sc2nc3c(N)ncnc3n2CCc2ccc(F)cc2Cl)c1 [Example 139, 9-[2-(2-chloro-4-fluoro-phenyl)-ethyl]-8-(2,5-dimethoxy-phenylsulfanyl)-9H-purin-6-ylamine]

The remaining lines, values behind:

Row | SMILES | IC50 [nM]
28 | CCOc1cc(CCn2c(Sc3cc(OC)ccc3OC)nc3c(N)ncnc32)ccc1OC [Example 111, 8-(2,5-Dimethoxy-phenylsulfanyl)-9-[2-(3-ethoxy-4-methoxy-phenyl)-ethyl]-9H-purin-6-ylamine] | 10000
29 | COc1ccc(OC)c(Sc2nc3c(N)ncnc3n2CC(c2ccccc2)C(C)C)c1 (centres unmarked) [Example 113, 8-(2,5-Dimethoxy-phenylsulfanyl)-9-(3-methyl-2-phenyl-butyl)-9H-purin-6-ylamine] | 550
30 | COc1ccc(OC)c(Sc2nc3c(N)ncnc3n2CCc2cc(C)ccc2C)c1 [Example 115, 8-(2,5-Dimethoxy-phenylsulfanyl)-9-[2-(2,5-dimethyl-phenyl)-ethyl]-9H-purin-6-ylamine] | 110
31 | COc1ccc(OC)c(Sc2nc3c(N)ncnc3n2CCc2ccc(F)cc2F)c1 [Example 121, 9-[2-(2,4-Difluoro-phenyl)-ethyl]-8-(2,5-dimethoxy-phenylsulfanyl)-9H-purine-6-ylamine] | 520
32 | Cc1ccc(C)c(CCn2c(Sc3cc4c(cc3Br)OCO4)nc3c(N)ncnc32)c1 [Example 124, 8-(6-Bromo-benzo[1,3]dioxol-5-ylsulfanyl)-9-[2-(2,5-dimethyl-phenyl)-ethyl]-9H-purin-6-ylamine] | 220
33 | CC(C)C(Cn1c(Sc2cc3c(cc2Br)OCO3)nc2c(N)ncnc21)c1ccccc1 (centres unmarked) [Example 126, 8-(6-Bromo-benzo[1,3]dioxol-5-ylsulfanyl)-9-(3-methyl-2-phenyl-butyl)-9H-purin-6-ylamine] | 300
34 | Nc1ncnc2c1nc(Sc1cc3c(cc1Br)OCO3)n2CCc1c(Cl)cccc1Cl [Example 128, 8-(6-Bromo-benzo[1,3]dioxol-5-ylsulfanyl)-9-[2-(2,6-dichloro-phenyl)-ethyl]-9H-purin-6-ylamine] | 66
35 | Nc1ncnc2c1nc(Sc1cc3c(cc1Br)OCO3)n2CCc1c(F)cccc1Cl [Example 130, 8-(6-Bromo-benzo[1,3]dioxol-5-ylsulfanyl)-9-[2-(2-chloro-6-fluoro-phenyl)-ethyl]-9H-purin-6-ylamine] | 40
36 | COc1ccc(OC)c(Sc2nc3c(N)ncnc3n2CCc2cc(C)cc(C)c2)c1 [Example 132, 8-(2,5-Dimethoxy-phenylsulfanyl)-9-[2-(3,5-dimethyl-phenyl)-ethyl]-9H-purine-6-ylamine] | 500
37 | COc1ccc(OC)c(Sc2nc3c(N)ncnc3n2CCc2ccccc2Br)c1 [Example 141, 9-[2-(2-Bromo-phenyl)-ethyl]-8-(2,5-dimethoxy-phenylsulfanyl)-9H-purin-6-ylamine] | 40
38 | COc1ccc(OC)c(Sc2nc3c(N)ncnc3n2CCc2cc(F)cc(F)c2)c1 [Example 143, 9-[2-(3,5-Difluoro-phenyl)-ethyl]-8-(2,5-dimethoxy-phenylsulfanyl)-9H-purin-6-ylamine] | > 3000
